Biological target: T1, Androgen receptor (Rattus norvegicus) (UniProt P15207)
T1 sequence (whole entry): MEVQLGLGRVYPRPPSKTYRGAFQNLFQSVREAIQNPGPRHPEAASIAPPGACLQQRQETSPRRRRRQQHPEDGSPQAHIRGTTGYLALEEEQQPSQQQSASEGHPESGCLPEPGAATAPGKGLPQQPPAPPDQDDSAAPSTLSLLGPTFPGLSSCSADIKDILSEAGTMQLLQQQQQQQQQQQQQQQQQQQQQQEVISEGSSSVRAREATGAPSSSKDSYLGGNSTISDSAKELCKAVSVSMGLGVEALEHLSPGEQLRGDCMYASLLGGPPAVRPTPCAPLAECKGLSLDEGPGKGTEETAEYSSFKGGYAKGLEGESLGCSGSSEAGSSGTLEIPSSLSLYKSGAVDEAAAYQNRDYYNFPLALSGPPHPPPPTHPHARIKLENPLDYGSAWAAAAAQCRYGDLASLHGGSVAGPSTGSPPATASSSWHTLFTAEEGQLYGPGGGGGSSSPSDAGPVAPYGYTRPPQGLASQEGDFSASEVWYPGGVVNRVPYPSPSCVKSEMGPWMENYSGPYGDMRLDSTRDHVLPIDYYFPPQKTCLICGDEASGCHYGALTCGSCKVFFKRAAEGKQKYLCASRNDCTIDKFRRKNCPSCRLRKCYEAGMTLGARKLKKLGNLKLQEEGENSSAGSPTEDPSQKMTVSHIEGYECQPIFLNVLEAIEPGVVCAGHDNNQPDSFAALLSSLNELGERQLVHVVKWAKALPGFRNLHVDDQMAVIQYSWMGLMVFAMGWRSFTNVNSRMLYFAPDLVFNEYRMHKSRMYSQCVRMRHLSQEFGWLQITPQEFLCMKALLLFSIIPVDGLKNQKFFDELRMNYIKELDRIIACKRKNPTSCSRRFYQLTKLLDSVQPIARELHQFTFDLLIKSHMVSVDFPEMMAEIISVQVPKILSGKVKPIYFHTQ
Details: Prostate gland; filed as agonist

Row | SMILES | ED50
1 | C#C[C@]1(O)CCC2C3CC[C@H]4Cc5oc(C(=O)C6CC6)cc5C[C@]4(C)C3CC[C@@]21C (stereo partly specified) | Agonist
2 | C#C[C@]1(O)CCC2C3CC[C@H]4Cc5oc(C(=O)C(Cl)(Cl)Cl)cc5C[C@]4(C)C3CC[C@@]21C (stereo partly specified) | Agonist
3 | CC[C@]1(O)CCC2C3CC[C@H]4Cc5oc(C(C)=O)cc5C[C@]4(C)C3CC[C@@]21C (stereo partly specified) | Agonist
4 | C=C[C@]1(O)CCC2C3CC[C@H]4Cc5oc(C(C)=O)cc5C[C@]4(C)C3CC[C@@]21C (stereo partly specified) | Agonist
5 | C#C[C@]1(O)CCC2C3CC[C@H]4Cc5oc(C(=O)C(C)C)cc5C[C@]4(C)C3CC[C@@]21C (stereo partly specified) | Agonist
6 | CC(=O)c1cc2c(o1)C[C@@H]1CCC3C(CC[C@@]4(C)C3CC[C@@H]4O)[C@H]1C2 (stereo partly specified) | Agonist
7 | C[C@]12CCC3C(CC[C@H]4Cc5oc(C(=O)C6CCC6)cc5C[C@]34C)C1CC[C@@H]2O (stereo partly specified) | Agonist
8 | C[C@]12CCC3C(CC[C@H]4Cc5oc(C(=O)C(F)(F)F)cc5C[C@]34C)C1CC[C@@H]2O (stereo partly specified) | Agonist
9 | CC(C)C(=O)c1cc2c(o1)C[C@@H]1CCC3C4CC[C@H](O)[C@@]4(C)CCC3[C@@]1(C)C2 (stereo partly specified) | Agonist
10 | CC(=O)c1cc2c(o1)C[C@@H]1CCC3C4CC[C@H](O)[C@@]4(C)CCC3[C@@]1(C)C2 (stereo partly specified) | Agonist
11 | C#C[C@]1(O)CCC2C3CC[C@H]4Cc5oc(C(=O)C(F)(F)F)cc5C[C@]4(C)C3CC[C@@]21C (stereo partly specified) | Agonist

Species: Rattus norvegicus
Experiment: Effective dose required for the compound to inhibit testosterone propionate-stimulated prostate weight gain by 50% […].
Assay type: functional
Details: Prostate gland

Row | SMILES | ED50
12 | COc1ccc(C(=O)c2cc3c(o2)C[C@@H]2CCC4C5CC[C@H](O)[C@@]5(C)CCC4[C@@]2(C)C3)cc1 (stereo partly specified) | > 100 mg/kg

Biological target: T1, Androgen receptor (Rattus norvegicus)
Experiment: Effective dose required to inhibit testosterone propionate-stimulated prostate weight gain by 50% […].
Assay type: tissue-based
Details: Prostate gland

Row | SMILES | ED50
13 | C[C@]12CCC3C(CC[C@H]4Cc5oc(C=O)cc5C[C@]34C)C1CC[C@@H]2O (stereo partly specified) | > 100 mg/kg
14 | CCC(=O)c1cc2c(o1)C[C@@H]1CCC3C4CC[C@H](O)[C@@]4(C)CCC3[C@@]1(C)C2 (stereo partly specified) | 33 mg/kg
15 | C[C@]12CCC3C(CC[C@H]4Cc5oc(C=O)cc5C[C@H]34)C1CC[C@@H]2O (stereo partly specified) | > 100 mg/kg
16 | CC1(C(=O)c2cc3c(o2)C[C@@H]2CCC4C5CC[C@H](O)[C@@]5(C)CCC4[C@@]2(C)C3)CC1 (stereo partly specified) | > 100 mg/kg
17 | C#C[C@]1(O)CCC2C3CC[C@H]4Cc5oc(C(C)=O)cc5C[C@@H]4C3CC[C@@]21C (stereo partly specified) | 100 mg/kg
18 | C[C@]12CCC3C(CC[C@H]4Cc5oc(C(=O)C6CC6)cc5C[C@]34C)C1CC[C@@H]2O (stereo partly specified) | 100 mg/kg
19 | CCCC(=O)c1cc2c(o1)C[C@@H]1CCC3C4CC[C@H](O)[C@@]4(C)CCC3[C@@]1(C)C2 (stereo partly specified) | > 75 mg/kg
20 | C#C[C@]1(O)CCC2C3CC[C@H]4Cc5oc(C(=O)O)cc5C[C@]4(C)C3CC[C@@]21C (stereo partly specified) | > 100 mg/kg
21 | C#C[C@]1(O)CCC2C3CC[C@H]4Cc5oc(C(=O)OC)cc5C[C@]4(C)C3CC[C@@]21C (stereo partly specified) | > 50 mg/kg
22 | COC(=O)c1cc2c(o1)C[C@@H]1CCC3C4CC[C@H](O)[C@@]4(C)CCC3[C@@]1(C)C2 (stereo partly specified) | > 100 mg/kg
23 | C[C@]12CCC3C(CC[C@H]4Cc5oc(C(=O)O)cc5C[C@]34C)C1CC[C@@H]2O (stereo partly specified) | > 100 mg/kg
24 | C[C@]12CCC3C(CC[C@H]4Cc5oc(C(=O)c6ccccc6)cc5C[C@]34C)C1CC[C@@H]2O (stereo partly specified) | > 100 mg/kg
25 | CC(=O)c1cc2cc3c(cc2o1)CC[C@@H]1[C@@H]3CC[C@]2(C)[C@@H](O)CC[C@@H]12 | 100 mg/kg
26 | C#C[C@]1(O)CCC2C3CC[C@H]4Cc5oc(C=O)cc5C[C@]4(C)C3CC[C@@]21C (stereo partly specified) | 100 mg/kg
27 | CC(C)(C)C(=O)c1cc2c(o1)C[C@@H]1CCC3C4CC[C@H](O)[C@@]4(C)CCC3[C@@]1(C)C2 (stereo partly specified) | > 100 mg/kg
28 | C#C[C@]1(O)CCC2C3CC[C@H]4Cc5oc(C(C)=O)cc5C[C@]4(C)C3CC[C@@]21C (stereo partly specified) | > 100 mg/kg
29 | C#C[C@]1(O)CCC2C3CC[C@H]4Cc5oc(C(N)=O)cc5C[C@]4(C)C3CC[C@@]21C (stereo partly specified) | 56 mg/kg
30 | C[C@]12CCC3C(CC[C@H]4Cc5occc5C[C@]34C)C1CC[C@@H]2O (stereo partly specified) | > 100 mg/kg
31 | C#C[C@]1(O)CCC2C3CC[C@H]4Cc5oc(C(=O)CC)cc5C[C@]4(C)C3CC[C@@]21C (stereo partly specified) | 30 mg/kg
